# Data reported in ChEMBL document CHEMBL2429832, “N-substituted 8-aminopentacyclo[5.4.0.0(2,6).0(3,10).0(5,9)]undecanes as σ receptor ligands with potential neuroprotective effects” (Bioorg Med Chem, 2013).
# Experiments:
# [1] = target: T1, 5-hydroxytryptamine receptor 1A (Homo sapiens) (UniProt P08908); test: Inhibition of 5-HT1A receptor (unknown origin) at 10 uM by PDSP assay relative to control
# T1 sequence (whole entry): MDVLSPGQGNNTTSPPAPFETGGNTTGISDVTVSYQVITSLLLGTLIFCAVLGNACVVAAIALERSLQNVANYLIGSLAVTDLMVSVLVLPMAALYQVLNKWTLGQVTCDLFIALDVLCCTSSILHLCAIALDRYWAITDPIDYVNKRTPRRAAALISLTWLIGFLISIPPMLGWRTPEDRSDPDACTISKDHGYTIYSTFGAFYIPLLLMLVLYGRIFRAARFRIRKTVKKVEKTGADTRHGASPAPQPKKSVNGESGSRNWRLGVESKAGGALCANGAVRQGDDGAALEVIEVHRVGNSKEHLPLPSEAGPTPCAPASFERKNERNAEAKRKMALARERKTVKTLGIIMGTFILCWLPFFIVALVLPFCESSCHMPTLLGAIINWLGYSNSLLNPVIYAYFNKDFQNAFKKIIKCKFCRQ
# [2] = target: 5-hydroxytryptamine receptor 7 (Homo sapiens, UniProt P34969); test: Inhibition of 5-HT7 receptor (unknown origin) at 10 uM by PDSP assay relative to control
# 5-hydroxytryptamine receptor 7, sequence (P34969 whole entry): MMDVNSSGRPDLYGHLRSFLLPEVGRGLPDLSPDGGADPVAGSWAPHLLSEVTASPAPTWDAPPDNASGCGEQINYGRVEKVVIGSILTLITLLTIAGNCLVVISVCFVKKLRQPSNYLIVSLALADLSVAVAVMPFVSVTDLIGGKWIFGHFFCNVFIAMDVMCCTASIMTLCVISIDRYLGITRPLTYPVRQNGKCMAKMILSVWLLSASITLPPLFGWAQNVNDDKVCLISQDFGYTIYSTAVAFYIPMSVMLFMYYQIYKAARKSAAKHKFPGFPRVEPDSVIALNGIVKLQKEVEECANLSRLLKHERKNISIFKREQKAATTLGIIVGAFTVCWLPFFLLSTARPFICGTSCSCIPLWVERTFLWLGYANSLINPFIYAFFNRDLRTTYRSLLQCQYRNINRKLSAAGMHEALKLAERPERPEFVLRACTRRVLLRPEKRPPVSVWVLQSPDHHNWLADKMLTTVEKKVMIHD
# Mu-type opioid receptor = Mu-type opioid receptor (Homo sapiens, UniProt P35372); test: Inhibition of mu opioid receptor (unknown origin) at 10 uM by PDSP assay relative to control
# Mu-type opioid receptor, sequence (P35372 whole entry): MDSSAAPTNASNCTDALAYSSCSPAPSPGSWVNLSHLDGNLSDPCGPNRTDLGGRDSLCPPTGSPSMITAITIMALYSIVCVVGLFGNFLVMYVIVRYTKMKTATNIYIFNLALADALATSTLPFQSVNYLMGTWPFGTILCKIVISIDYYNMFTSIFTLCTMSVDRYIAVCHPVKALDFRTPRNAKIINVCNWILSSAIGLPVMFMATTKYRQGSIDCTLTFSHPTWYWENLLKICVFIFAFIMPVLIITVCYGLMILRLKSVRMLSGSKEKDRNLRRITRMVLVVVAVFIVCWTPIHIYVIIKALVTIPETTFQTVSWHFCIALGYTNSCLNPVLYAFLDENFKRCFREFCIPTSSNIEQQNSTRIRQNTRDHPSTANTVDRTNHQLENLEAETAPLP
# [3] = target: Beta-3 adrenergic receptor (Homo sapiens) (UniProt P13945); test: Inhibition of adrenergic beta3 receptor (unknown origin) at 10 uM by PDSP assay relative to control
# Histamine H3 receptor = Histamine H3 receptor (Homo sapiens, UniProt Q9Y5N1); test: Inhibition of histamine H3 receptor (unknown origin) at 10 uM by PDSP assay relative to control
# Histamine H3 receptor, sequence (Q9Y5N1 whole entry): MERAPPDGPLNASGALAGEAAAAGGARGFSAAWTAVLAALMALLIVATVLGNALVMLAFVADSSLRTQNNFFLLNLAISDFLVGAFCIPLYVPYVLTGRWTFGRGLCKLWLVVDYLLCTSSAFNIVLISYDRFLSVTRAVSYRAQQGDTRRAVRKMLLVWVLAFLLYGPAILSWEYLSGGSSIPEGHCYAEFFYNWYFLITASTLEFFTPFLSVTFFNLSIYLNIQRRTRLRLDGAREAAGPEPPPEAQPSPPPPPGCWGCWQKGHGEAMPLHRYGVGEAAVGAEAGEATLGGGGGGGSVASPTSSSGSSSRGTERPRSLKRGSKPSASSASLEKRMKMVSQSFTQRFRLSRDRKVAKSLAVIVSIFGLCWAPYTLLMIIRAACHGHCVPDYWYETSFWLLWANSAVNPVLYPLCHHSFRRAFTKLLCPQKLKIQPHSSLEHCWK
# Histamine H4 receptor = Histamine H4 receptor (Homo sapiens, UniProt Q9H3N8); test: Inhibition of histamine H4 receptor (unknown origin) at 10 uM by PDSP assay relative to control
# [4] = target: T2, D(4) dopamine receptor (Homo sapiens) (UniProt P21917); test: Inhibition of dopamine D4 receptor (unknown origin) at 10 uM by PDSP assay relative to control
# T2 sequence (whole entry): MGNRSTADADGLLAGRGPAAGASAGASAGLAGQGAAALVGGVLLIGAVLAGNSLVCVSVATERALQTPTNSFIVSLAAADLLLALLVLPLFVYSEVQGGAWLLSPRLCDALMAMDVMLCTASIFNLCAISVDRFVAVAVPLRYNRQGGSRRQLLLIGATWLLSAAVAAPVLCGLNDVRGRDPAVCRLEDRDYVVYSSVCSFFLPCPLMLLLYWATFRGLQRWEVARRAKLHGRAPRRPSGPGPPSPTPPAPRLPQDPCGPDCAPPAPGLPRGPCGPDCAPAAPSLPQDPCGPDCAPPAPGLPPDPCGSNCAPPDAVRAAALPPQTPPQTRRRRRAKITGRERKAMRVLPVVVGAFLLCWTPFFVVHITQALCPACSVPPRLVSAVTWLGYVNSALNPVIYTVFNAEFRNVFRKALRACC
# [5] = Displacement of [3H]-DTG from sigma-2 receptor in rat PC12 cells; assay type: cell-based; details: pc-12
# [6] = target: 5-hydroxytryptamine receptor 1E (Homo sapiens) (UniProt P28566); test: Inhibition of 5-HT1E receptor (unknown origin) at 10 uM by PDSP assay relative to control
# 5-hydroxytryptamine receptor 1E (Homo sapiens), sequence (P28566 whole entry): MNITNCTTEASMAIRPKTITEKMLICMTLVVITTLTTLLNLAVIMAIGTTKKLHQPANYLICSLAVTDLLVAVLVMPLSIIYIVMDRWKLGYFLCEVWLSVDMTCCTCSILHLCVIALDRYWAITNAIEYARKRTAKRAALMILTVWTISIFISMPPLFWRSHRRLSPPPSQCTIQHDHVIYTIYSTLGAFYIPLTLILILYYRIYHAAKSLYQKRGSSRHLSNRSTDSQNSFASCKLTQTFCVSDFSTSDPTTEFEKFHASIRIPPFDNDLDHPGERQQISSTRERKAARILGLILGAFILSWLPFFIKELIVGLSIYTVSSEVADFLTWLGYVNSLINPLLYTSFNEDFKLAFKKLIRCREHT
# [7] = target: T3, 5-hydroxytryptamine receptor 3A (Homo sapiens) (UniProt P46098); test: Inhibition of 5-HT3 receptor (unknown origin) at 10 uM by PDSP assay relative to control
# T3 sequence (whole entry): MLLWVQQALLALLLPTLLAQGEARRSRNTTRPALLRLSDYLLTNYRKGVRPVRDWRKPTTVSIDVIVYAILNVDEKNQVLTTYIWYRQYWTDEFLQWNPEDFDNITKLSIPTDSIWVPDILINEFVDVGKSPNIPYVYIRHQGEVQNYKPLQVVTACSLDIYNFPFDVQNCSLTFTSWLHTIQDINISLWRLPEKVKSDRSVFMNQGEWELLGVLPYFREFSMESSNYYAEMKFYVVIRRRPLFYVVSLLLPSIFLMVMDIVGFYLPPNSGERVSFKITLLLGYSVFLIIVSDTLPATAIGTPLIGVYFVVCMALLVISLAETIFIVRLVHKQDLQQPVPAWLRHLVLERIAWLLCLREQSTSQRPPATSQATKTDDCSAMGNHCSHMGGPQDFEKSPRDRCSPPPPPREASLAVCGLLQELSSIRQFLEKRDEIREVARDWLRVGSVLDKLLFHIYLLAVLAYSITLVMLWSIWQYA
# PC-12 = test: Selectivity ratio of Ki for sigma-1 receptor in rat brain homogenates to Ki for sigma-2 receptor in rat PC12 cells; assay type: cell-based
# [8] = target: 5-hydroxytryptamine receptor 2B (Homo sapiens, UniProt P41595); test: Inhibition of 5-HT2B receptor (unknown origin) at 10 uM by PDSP assay relative to control
# 5-hydroxytryptamine receptor 2B, sequence (P41595 whole entry): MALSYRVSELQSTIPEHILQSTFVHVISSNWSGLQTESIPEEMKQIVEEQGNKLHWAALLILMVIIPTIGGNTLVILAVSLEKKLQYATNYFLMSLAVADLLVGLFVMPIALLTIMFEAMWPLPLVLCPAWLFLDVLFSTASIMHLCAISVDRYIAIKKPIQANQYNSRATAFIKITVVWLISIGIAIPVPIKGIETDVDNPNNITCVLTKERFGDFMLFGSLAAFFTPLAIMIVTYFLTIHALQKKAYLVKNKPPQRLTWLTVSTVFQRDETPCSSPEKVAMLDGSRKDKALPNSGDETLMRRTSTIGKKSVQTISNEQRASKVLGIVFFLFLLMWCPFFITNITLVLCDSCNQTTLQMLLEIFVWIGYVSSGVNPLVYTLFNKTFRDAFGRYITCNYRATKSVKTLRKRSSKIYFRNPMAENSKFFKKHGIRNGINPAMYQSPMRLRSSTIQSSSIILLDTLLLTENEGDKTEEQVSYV
# [9] = target: Delta-type opioid receptor (Homo sapiens, UniProt P41143); test: Inhibition of delta opioid receptor (unknown origin) at 10 uM by PDSP assay relative to control
# Delta-type opioid receptor, sequence (P41143 whole entry): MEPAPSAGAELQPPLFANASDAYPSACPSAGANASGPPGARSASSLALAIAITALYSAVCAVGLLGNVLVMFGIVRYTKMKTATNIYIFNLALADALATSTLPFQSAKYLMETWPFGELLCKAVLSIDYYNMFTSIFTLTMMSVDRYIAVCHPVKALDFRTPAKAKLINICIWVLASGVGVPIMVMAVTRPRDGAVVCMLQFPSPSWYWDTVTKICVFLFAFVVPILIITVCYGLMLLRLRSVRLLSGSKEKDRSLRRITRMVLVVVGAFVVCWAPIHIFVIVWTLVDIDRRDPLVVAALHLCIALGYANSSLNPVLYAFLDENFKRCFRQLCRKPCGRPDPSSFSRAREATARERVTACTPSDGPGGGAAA
# [10] = target: Beta-2 adrenergic receptor (Homo sapiens) (UniProt P07550); test: Inhibition of adrenergic beta2 receptor (unknown origin) at 10 uM by PDSP assay relative to control
# Beta-2 adrenergic receptor (Homo sapiens), sequence (P07550 whole entry, looked up): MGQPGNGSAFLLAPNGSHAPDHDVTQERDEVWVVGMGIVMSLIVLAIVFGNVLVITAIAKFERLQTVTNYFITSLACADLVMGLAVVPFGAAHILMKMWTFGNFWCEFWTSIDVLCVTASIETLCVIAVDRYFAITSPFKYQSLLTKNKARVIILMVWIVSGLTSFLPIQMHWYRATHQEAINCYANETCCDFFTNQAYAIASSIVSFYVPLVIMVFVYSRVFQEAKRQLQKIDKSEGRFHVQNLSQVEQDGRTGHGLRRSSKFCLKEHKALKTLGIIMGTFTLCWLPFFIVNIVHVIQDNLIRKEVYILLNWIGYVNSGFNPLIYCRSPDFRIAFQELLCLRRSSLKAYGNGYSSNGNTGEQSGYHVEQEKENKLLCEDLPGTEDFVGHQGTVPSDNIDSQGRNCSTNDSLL
# [11] = target: Sodium-dependent noradrenaline transporter (Homo sapiens, UniProt P23975); test: Displacement of [3H]-nisoxetine from human NET expressed in HEK cell membranes at 10 uM relative to control; details: HEK293
# Sodium-dependent noradrenaline transporter, sequence (P23975 whole entry): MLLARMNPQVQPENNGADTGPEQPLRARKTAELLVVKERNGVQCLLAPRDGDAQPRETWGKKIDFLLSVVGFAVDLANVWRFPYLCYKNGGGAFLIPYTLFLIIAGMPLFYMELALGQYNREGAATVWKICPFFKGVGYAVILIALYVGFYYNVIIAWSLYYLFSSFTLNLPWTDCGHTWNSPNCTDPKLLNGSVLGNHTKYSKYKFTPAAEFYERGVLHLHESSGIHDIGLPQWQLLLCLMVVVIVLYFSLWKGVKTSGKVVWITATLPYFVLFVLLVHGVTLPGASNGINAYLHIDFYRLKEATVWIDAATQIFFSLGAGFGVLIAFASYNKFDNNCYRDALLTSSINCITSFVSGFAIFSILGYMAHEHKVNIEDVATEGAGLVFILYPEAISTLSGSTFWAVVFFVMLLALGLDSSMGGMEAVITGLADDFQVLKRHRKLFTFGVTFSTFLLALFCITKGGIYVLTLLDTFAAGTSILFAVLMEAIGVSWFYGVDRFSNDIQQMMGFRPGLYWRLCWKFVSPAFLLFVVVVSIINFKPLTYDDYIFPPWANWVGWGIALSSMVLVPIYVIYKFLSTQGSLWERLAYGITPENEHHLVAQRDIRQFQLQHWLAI
# [12] = target: 5-hydroxytryptamine receptor 1D (Homo sapiens) (UniProt P28221); test: Inhibition of 5-HT1D receptor (unknown origin) at 10 uM by PDSP assay relative to control
# [13] = target: 5-hydroxytryptamine receptor 5A (Homo sapiens, UniProt P47898); test: Inhibition of 5-HT5A receptor (unknown origin) at 10 uM by PDSP assay relative to control
# 5-hydroxytryptamine receptor 5A, sequence (P47898 whole entry): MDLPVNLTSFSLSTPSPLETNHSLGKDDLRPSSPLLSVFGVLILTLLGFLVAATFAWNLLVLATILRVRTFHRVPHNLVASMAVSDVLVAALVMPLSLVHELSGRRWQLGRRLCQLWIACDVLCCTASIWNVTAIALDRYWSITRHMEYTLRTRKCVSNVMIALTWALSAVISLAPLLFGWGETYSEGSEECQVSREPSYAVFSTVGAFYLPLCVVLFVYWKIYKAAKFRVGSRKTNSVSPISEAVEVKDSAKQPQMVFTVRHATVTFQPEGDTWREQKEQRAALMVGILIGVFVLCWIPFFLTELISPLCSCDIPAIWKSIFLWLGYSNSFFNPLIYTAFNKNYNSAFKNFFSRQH
# [14] = target: D(1A) dopamine receptor (Homo sapiens) (UniProt P21728); test: Inhibition of dopamine D1 receptor (unknown origin) at 10 uM by PDSP assay relative to control
# [15] = target: Beta-1 adrenergic receptor (Homo sapiens) (UniProt P08588); test: Inhibition of adrenergic beta1 receptor (unknown origin) at 10 uM by PDSP assay relative to control
# Beta-1 adrenergic receptor (Homo sapiens), sequence (P08588 whole entry, looked up): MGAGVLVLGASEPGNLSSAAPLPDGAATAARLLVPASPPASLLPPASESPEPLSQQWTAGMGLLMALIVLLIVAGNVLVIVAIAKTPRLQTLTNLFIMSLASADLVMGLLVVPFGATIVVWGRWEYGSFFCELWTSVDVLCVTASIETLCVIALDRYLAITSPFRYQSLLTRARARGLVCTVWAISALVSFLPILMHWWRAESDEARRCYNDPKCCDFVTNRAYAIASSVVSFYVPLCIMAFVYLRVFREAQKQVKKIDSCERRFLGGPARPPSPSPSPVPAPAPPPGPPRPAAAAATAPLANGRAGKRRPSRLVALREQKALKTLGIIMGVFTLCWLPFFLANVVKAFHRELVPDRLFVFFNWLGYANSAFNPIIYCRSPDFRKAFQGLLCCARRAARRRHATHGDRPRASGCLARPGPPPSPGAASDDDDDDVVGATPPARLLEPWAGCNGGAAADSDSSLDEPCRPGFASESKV
# [16] = target: Sigma non-opioid intracellular receptor 1 (Rattus norvegicus, UniProt Q9R0C9); test: Displacement of [3H](+)-pentazocine from sigma-1 receptor in rat brain homogenates; assay type: tissue-based
# Sigma non-opioid intracellular receptor 1, sequence (Q9R0C9 whole entry): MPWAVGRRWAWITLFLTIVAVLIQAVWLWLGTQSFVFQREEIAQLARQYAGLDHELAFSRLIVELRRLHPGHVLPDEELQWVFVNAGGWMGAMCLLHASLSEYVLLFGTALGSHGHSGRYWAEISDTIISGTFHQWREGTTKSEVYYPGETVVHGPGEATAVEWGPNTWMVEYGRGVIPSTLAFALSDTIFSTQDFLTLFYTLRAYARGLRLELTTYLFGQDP
inhibition [1],inhibition [2],inhibition (Mu-type opioid receptor),inhibition [3],inhibition (Histamine H3 receptor),inhibition (Histamine H4 receptor),inhibition [4],inhibition [6],inhibition [7],inhibition [8],inhibition [9],inhibition [10],inhibition [11],inhibition [12],inhibition [13],inhibition [14],inhibition [15],Ki [16],Compound,Ki [5],Ratio Ki (PC-12)
< 50%,< 50%,< 50%,< 50%,< 50%,< 50%,< 50%,< 50%,< 50%,< 50%,< 50%,< 50%,< 50%,< 50%,< 50%,< 50%,< 50%,1220 nM,COc1cc(CN(C)[C@H]2C3C4CC5C6C4CC3C6C52)cc(OC)c1OC (stereo not given in full),714 nM,1.7
< 50%,< 50%,< 50%,< 50%,< 50%,< 50%,< 50%,< 50%,< 50%,< 50%,< 50%,< 50%,< 50%,< 50%,< 50%,< 50%,< 50%,429 nM,CN(CCCc1cccc(F)c1)[C@H]1C2C3CC4C5C3CC2C5C41 (stereo not given in full),11 nM,39
< 50%,< 50%,< 50%,< 50%,< 50%,< 50%,< 50%,< 50%,< 50%,< 50%,< 50%,< 50%,< 50%,< 50%,< 50%,< 50%,< 50%,568 nM,CN(Cc1ccccc1)[C@H]1C2C3CC4C2C(=O)C2C4C3C21 (stereo not given in full),217 nM,2.6
< 50%,< 50%,< 50%,< 50%,< 50%,< 50%,< 50%,< 50%,< 50%,< 50%,< 50%,< 50%,< 50%,< 50%,< 50%,< 50%,< 50%,970 nM,CN(Cc1cccnc1)[C@H]1C2C3CC4C5C3CC2C5C41 (stereo not given in full),881 nM,1.1
